The target in experiment [1] is T1, V-type immunoglobulin domain-containing suppressor of T-cell activation (Mus musculus, UniProt Q9D659).
T1 sequence (Q9D659 whole entry): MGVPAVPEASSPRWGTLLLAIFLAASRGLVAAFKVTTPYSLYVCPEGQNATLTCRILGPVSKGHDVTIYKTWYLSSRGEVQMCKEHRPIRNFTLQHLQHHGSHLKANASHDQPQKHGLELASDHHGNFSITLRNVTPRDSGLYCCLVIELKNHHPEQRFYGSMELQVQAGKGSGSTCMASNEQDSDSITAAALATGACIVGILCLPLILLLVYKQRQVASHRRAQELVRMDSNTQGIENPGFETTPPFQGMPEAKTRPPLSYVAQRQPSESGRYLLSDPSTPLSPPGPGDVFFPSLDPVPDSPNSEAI
As to the kind of experiment: Binding affinity to mouse VISTA ECD assessed as dissociation constant by MST analysis.

Experiment [2] concerns the target T2, V-type immunoglobulin domain-containing suppressor of T-cell activation (Homo sapiens, UniProt Q9H7M9).
T2 sequence (Q9H7M9 whole entry): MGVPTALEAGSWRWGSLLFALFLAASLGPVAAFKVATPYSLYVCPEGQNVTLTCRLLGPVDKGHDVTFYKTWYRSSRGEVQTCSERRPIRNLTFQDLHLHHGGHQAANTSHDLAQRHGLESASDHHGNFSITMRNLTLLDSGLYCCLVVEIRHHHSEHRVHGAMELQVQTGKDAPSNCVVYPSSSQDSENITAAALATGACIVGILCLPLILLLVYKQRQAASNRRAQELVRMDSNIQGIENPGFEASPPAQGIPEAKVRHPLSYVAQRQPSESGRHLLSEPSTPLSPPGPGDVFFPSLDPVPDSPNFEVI
Description: Binding affinity to human VISTA assessed as dissociation constant by MST analysis

As usually defined, the Kd is the free concentration of one partner at which half of the binding sites on the other are occupied at equilibrium, for simple one-to-one binding. `Cc1ccc2nc(Nc3nc(O)cc(CSc4nnc(C)s4)n3)nc(C)c2c1`: the Kd in experiment [1] turned out to be 647 nM. `COC1C=C(CNCCNC(C)=O)N=C(Nc2cccc(O)c2)N1` (configuration not stated) displayed a Kd in experiment [2] of 4730 nM.

The values above are taken from ChEMBL document CHEMBL5518211, “Design, Synthesis, and Antitumor Activity Evaluation of Novel VISTA Small Molecule Inhibitors” (J Med Chem, 2024).
